Assay results published in patent publication US4247535A, “Modified cyclodextrin sulfate salts as complement inhibitors” (American Cyanamid Company, priority 1979, dated 1981).
Structures can show the parent of a compound that is named as a salt.

Key:
whole complement = assay: Complement Level Reduction Test (in vivo, capillary tube assay of serum); conditions: 200 mg/kg i.v. or i.p.
Excerpt: An active inhibitor protects C2 from C1 and C4; (ii) Test Code 035 (C3-C9 inhibitor)--This test determines the ability of the late components of human complement (C3-C9) to lyse EAC 142 in the presence of appropriate dilutions of the test compound. An active inhibitor protects EAC 142 from lysis by human C3-C9; (iii) Test Code 036 (C-Shunt inhibitor)--In this test human erythrocytes rendered fragile are lysed in autologous serum via the shunt pathway activated by cobra venom factor in the presence of appropriate dilutions of the test compound. Inhibition of the shunt pathway results in failure of lysis; (iv) Forssman Vasculitis Test--Here, the well known complement dependent lesion, Forssman vasculitis, is produced in guinea pigs by intradermal injection of rabbit anti-Forssman antiserum. The lesion is measured in terms of diameter, edema and hemorrhage and the extent to which a combined index of these is inhibited by prior intraperitoneal injection of the test compound at 200 mg/kg is then reported, unless otherwise stated; (v) Forssman Shock Test--Lethal shock is produced in guinea pigs by an i.v. injection of anti-Forssman antiserum and the harmonic mean death time of treated guinea pigs is compared with that of simultaneous controls; (vi) Complement Level Reduction Test--In this test, the above dosed guinea pigs, or others, are bled for serum and the complement level is determined in undiluted serum by the capillary tube method of U.S. Pat. No. 3,876,376 and compared to undosed control guinea pigs; and (vii) Cap 50 Test--Here, appropriate amounts of the test compound are added to a pool of guinea pig serum in vitro, after which the undiluted serum capillary tube assay referred to above is run. The concentration of compound inhibiting 50% is reported.
With reference to Table I, guinea pigs weighing about 300 g were dosed intravenously (i.v.) or intraperitoneally (i.p.) with 200 mg/kg of the test compound dissolved in saline and adjusted to pH 7-8. […] Percent inhibition was calculated by comparison with simultaneous controls. […]

shunt pathway = assay: Test Code 036 (C-Shunt inhibitor), lysis of fragile human erythrocytes in autologous serum, cobra venom factor; format: cell-based; conditions: activity in wells, twofold serial dilution assay; higher well number = higher activity
Excerpt: (§1) An active inhibitor protects C2 from C1 and C4; (ii) Test Code 035 (C3-C9 inhibitor)--This test determines the ability of the late components of human complement (C3-C9) to lyse EAC 142 in the presence of appropriate dilutions of the test compound. An active inhibitor protects EAC 142 from lysis by human C3-C9; (iii) Test Code 036 (C-Shunt inhibitor)--In this test human erythrocytes rendered fragile are lysed in autologous serum via the shunt pathway activated by cobra venom factor in the presence of appropriate dilutions of the test compound. Inhibition of the shunt pathway results in failure of lysis; (iv) Forssman Vasculitis Test--Here, the well known complement dependent lesion, Forssman vasculitis, is produced in guinea pigs by intradermal injection of rabbit anti-Forssman antiserum. […]

[1] = system: late components of human complement (C3-C9); assay: Test Code 035 (C3-C9 inhibitor), lysis of EAC 142; format: biochemical; conditions: activity in wells, twofold serial dilution assay; higher well number = higher activity
Excerpt: as §1

activated human C1 = activated human C1 (Homo sapiens, UniProt P09871); assay: Test Code 026 (C1 inhibitor); format: biochemical; conditions: activity in wells, twofold serial dilution assay; higher well number = higher activity
activated human C1, sequence (P09871 16-688): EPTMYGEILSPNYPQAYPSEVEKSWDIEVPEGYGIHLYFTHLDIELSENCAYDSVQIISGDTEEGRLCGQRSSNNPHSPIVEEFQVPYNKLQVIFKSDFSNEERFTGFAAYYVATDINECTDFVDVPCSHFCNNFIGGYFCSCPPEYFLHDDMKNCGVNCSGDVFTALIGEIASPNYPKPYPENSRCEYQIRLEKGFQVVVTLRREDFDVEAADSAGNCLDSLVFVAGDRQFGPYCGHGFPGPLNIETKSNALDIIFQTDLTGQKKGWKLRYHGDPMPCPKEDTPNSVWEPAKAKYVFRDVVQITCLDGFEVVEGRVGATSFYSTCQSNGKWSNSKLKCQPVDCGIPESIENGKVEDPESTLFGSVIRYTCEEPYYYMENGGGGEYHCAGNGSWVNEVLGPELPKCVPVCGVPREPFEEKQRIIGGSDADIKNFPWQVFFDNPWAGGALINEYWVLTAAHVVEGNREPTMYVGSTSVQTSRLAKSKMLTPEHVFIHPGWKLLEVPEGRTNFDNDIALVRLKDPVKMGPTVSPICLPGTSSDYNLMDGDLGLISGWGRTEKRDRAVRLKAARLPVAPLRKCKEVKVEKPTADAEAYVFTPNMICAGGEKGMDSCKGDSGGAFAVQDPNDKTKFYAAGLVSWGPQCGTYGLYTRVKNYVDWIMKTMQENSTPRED
activated human C1, sequence (P00736 18-705 partner): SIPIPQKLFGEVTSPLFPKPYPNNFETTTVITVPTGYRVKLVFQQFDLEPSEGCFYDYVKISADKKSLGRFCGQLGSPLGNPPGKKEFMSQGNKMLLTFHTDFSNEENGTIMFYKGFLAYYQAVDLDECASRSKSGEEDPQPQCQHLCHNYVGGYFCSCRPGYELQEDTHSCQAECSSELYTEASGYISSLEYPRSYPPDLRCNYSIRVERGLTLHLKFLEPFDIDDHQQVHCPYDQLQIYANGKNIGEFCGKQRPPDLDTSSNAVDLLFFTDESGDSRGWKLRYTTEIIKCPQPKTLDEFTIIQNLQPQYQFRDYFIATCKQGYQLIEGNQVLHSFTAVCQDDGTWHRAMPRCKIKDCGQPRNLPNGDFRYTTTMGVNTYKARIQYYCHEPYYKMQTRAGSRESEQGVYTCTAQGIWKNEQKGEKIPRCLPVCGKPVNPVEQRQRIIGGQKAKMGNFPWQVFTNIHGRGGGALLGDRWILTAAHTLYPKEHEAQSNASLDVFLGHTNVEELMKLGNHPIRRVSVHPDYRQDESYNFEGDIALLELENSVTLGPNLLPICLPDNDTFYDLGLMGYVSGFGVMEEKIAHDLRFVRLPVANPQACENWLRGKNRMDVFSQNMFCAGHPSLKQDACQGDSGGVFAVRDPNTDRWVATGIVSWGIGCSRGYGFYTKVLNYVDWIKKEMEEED
activated human C1, sequence (P02745 23-245 partner): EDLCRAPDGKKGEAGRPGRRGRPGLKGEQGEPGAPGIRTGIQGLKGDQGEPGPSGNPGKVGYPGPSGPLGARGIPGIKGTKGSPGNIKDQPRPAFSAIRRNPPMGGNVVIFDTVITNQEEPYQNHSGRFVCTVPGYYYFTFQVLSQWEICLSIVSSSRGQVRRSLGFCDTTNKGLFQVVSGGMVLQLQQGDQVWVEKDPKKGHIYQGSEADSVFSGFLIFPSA
activated human C1, sequence (P02746 28-253 partner): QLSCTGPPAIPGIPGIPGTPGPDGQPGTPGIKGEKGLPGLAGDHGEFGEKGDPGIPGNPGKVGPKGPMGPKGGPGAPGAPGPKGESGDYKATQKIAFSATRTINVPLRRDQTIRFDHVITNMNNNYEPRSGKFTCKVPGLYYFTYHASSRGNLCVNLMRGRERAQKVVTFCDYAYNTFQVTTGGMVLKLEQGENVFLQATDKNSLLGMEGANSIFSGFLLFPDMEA
activated human C1, sequence (P02747 29-245 partner): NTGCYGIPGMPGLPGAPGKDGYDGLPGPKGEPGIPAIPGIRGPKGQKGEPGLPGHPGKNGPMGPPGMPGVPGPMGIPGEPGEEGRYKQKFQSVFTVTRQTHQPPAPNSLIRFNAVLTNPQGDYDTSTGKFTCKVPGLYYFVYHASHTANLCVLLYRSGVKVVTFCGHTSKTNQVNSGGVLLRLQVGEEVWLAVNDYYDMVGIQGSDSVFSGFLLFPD
Excerpt: as §1

complement system = conditions: reported, British Journal of Experimental Pathology, 33, 327-339 (1952); cited from earlier work
[2] = system: hereditary angioneurotic edema; conditions: reported in the literature; cited from earlier work
human serum = conditions: both in vitro and in vivo, judged by reduction in total hemolytic complement activity; cited from earlier work

## O=C(O)[C@H]1O[C@@H]2O[C@H]3[C@H](OS(=O)(=O)O)[C@@H](OS(=O)(=O)O)[C@@H](O[C@H]4[C@H](OS(=O)(=O)O)[C@@H](OS(=O)(=O)O)[C@@H](O[C@H]5[C@H](OS(=O)(=O)O)[C@@H](OS(=O)(=O)O)[C@@H](O[C@H]6[C@H](OS(=O)(=O)O)[C@@H](OS(=O)(=O)O)[C@@H](O[C@H]7[C@H](OS(=O)(=O)O)[C@@H](OS(=O)(=O)O)[C@@H](O[C@H]8[C@H](OS(=O)(=O)O)[C@@H](OS(=O)(=O)O)[C@@H](O[C@H]1[C@H](OS(=O)(=O)O)[C@H]2OS(=O)(=O)O)O[C@@H]8C(=O)O)O[C@@H]7C(=O)O)O[C@@H]6C(=O)O)O[C@@H]5C(=O)O)O[C@@H]4C(=O)O)O[C@@H]3C(=O)O [5,5',5",5'",5"",5'"",5"""-Heptacarboxy-6,6',6",6'",6"",6'"",6"""-heptademethyl-β-cyclodextrin, heptasodium salt, tetradecakis (H-sulfate), tetradecasodium salt]
Whole complement; 30 min.
  In Vivo Activity (Guinea Pig) % Inhibition 30 min.: -18%
Whole complement; 60 min.
  In Vivo Activity (Guinea Pig) % Inhibition 60 min.: +14%
Whole complement; 120 min.
  In Vivo Activity (Guinea Pig) % Inhibition 120 min.: -40%
Shunt pathway
  036 In Vitro Activity: +3 wells
[1]
  035 In Vitro Activity: +1 wells
Activated human C1
  026 In Vitro Activity: +7 wells

## O=C(O)[C@H]1O[C@@H]2O[C@H]3[C@H](O)[C@@H](O)[C@@H](O[C@H]4[C@H](O)[C@@H](O)[C@@H](O[C@H]5[C@H](O)[C@@H](O)[C@@H](O[C@H]6[C@H](O)[C@@H](O)[C@@H](O[C@H]7[C@H](O)[C@@H](O)[C@@H](O[C@H]8[C@H](O)[C@@H](O)[C@@H](O[C@H]1[C@H](O)[C@H]2O)O[C@@H]8C(=O)O)O[C@@H]7C(=O)O)O[C@@H]6C(=O)O)O[C@@H]5C(=O)O)O[C@@H]4C(=O)O)O[C@@H]3C(=O)O [5,5',5",5'",5"",5'"",5"""-Heptacarboxy-6,6',6",6'",6"",6'"",] [5,5',5",5'",5"",5'"",5"""-Heptacarboxy-6,6',6",6'",6"",6'"",6"""-heptademethyl-β-cyclodextrin]
[1]
  035 In Vitro Activity: N

## Nc1ccc2cc(S(=O)(=O)O)cc(O)c2c1N=Nc1ccc(NC(=O)Nc2ccc(N=Nc3c(N)ccc4cc(S(=O)(=O)O)cc(O)c34)c(S(=O)(=O)O)c2)cc1S(=O)(=O)O [chlorazol fast pink, 3,3'-ureylenebis-[6-(2-amino-8-hydroxy-6-sulfo-1-naphthylazo)]benzenesulfonic acid, tetrasodium salt]
Complement system
  anticomplementary effect: anticomplementary effect

## NCCCCCC(=O)O [epsilon-aminocaproic acid]
[2]
  treatment of hereditary angioneurotic edema: used with success

## NC[C@H]1CC[C@H](C(=O)O)CC1 [tranexamic acid]
[2]
  treatment of hereditary angioneurotic edema: used with success

## heparin
Complement system
  anticomplementary effect: anticomplementary effect

## pentosan-polysulfoester
Human serum
  anticomplementary activity on human serum: anticomplementary activity
